Reference: patent publication US20150143553A1, “Methods And Compositions Comprising A Drosophila Model Of Amyotrophic Lateral Sclerosis” (priority 2013, published 2015)
Counter-ions that a name gives are not always drawn.

Tested on: Drosophila larvae expressing wild-type TDP-43 in motor neurons
Assay: Drug screen: rescue of lethality caused by wild-type TDP-43 expression in motor neurons (D42 Gal4)
Format: in vivo
Settings: transgene WT2
Description: […] Larvae expressing TDP-43 (wild type or mutant, as shown) are raised on drug containing food.
[…] Larvae expressing TDP-43 (wt or mutant) were raised on drug containing food.
Using a Drosophila model of ALS based on TDP-43 that recapitulates several aspects of the disease pathophysiology (33, 35), a drug screen aimed at identifying FDA approved compounds with neuroprotective potential in vivo were designed (FIG. 37A). […] This phenotype was used to screen for drug candidates with therapeutic potential as determined by their ability to rescue pupal lethality and produce viable adults with extended wings (FIG. 37A). […]
UAS TDP-43 males were crossed with D42-Gal4 female virgins on fly food containing either DMSO or pioglitazone. For DMSO controls, the same volume of DMSO as the corresponding drug concentration was added. Bromophenol blue was added to a final concentration of approximately 0.02% to ensure homogeneity. Crosses were made on drug food with 3 female virgins and 2 males in each vial, and were maintained at 25° C. unless noted. The parents were discarded after 5-7 days then the vials were screened for adult progeny with straight wings from day 14 to day 25. All adults were screened for TDP-43 expression by visualizing the YFP tag. Total number of pupae was counted on day 25. Percent survival was calculated using the formula (total number of straight-winged adults/total number of pupae)×100. All experiments were performed in triplicate.

Question: How did the “Preliminary rescue result: adults with normal wings” value (from here on “Preliminary rescue result: adults”) (30 μM in fly food) turn out when Cl.NCC(O)c1ccc(O)cc1 (racemic) [(+,−)-Octopamine HCl] was run?
Answer: 5 Adult Normal Wings Adults

Question: Which “Preliminary rescue result: adults” value (30 μM in fly food) does the source give for CC(=O)Oc1ccccc1C(=O)O [Acetylsalicylic Acid] here?
Answer: 1/1

Question: How did the “Preliminary rescue result: adults” value (30 μM in fly food) turn out when CCC(=O)OCC(=O)[C@@]1(OC(=O)CC)[C@H](C)C[C@H]2[C@H]3[C@H]([C@@H](O)C[C@@]21C)[C@@]1(C)C=CC(=O)C=C1C[C@H]3Cl [Alclometasone Dipropionate] was run?
Answer: 2 Adult Normal Wings Adults

Question: Which “Preliminary rescue result: adults” value (30 μM in fly food) does the source give for CCCCC(CC)CNC(=N)NC(=N)NCCCCCCNC(=N)NC(=N)NCC(CC)CCCC (stereo not drawn) [Alexidine Dihydrochloride] here?
Answer: 6 Adults Normal Wings

Question: For CC(=O)OCC(=O)[C@@]12OC3(CCCC3)O[C@@H]1C[C@H]1[C@@H]3CCC4=CC(=O)C=C[C@]4(C)[C@@]3(F)[C@@H](O)C[C@@]12C [Amcinonide], which “Preliminary rescue result: adults” value (30 μM in fly food) is on record?
Answer: 1/1

Question: With CN(C)CCCO[C@@H]1[C@H]2OC(C)(C)O[C@H]2O[C@@H]1[C@H](O)CO [Amiprilose HCl] as the compound, how does the “Preliminary rescue result: adults” value (30 μM in fly food) read?
Answer: 1 Adult Normal Wings Adults

Question: Nc1cc(-c2ccncc2)c[nH]c1=O [Amrinone] was tested. Which “Preliminary rescue result: adults” value (30 μM in fly food) did it give?
Answer: 1 Adult Normal Wings Adults

Question: COC(c1ccccc1)(c1ccccc1)[C@H](Oc1nc(C)cc(C)n1)C(=O)O [Amrisentan] was tested. Which “Preliminary rescue result: adults” value (50 μM in fly food) did it give?
Answer: 1 Adult Normal Wings Adults

Question: With O=C1c2c(O)cccc2Cc2cccc(O)c21 [Anthralin] as the compound, how does the “Preliminary rescue result: adults” value (50 μM in fly food) read?
Answer: 1 Adult Normal Wings Adults

Question: Which “Preliminary rescue result: adults” value (30 μM in fly food) does the source give for CC(C)c1c(C(=O)Nc2ccccc2)c(-c2ccccc2)c(-c2ccc(F)cc2)n1CC[C@@H](O)C[C@@H](O)CC(=O)O [Atorvastatin] here?
Answer: 1 Adult Normal Wings Adults

Question: For CC[C@H]1OC(=O)[C@H](C)[C@@H](O[C@H]2C[C@@](C)(OC)[C@@H](O)[C@H](C)O2)[C@H](C)[C@@H](O[C@@H]2O[C@H](C)C[C@H](N(C)C)[C@H]2O)[C@](C)(O)C[C@@H](C)CN(C)[C@H](C)[C@@H](O)[C@]1(C)O [Azithromycin], which “Preliminary rescue result: adults” value (30 μM in fly food) is on record?
Answer: 1 Adult Normal Wings Adults

Question: With CC1(C)S[C@@H]2[C@H](NC(=O)[C@H](NC(=O)N3CCNC3=O)c3ccccc3)C(=O)N2[C@H]1C(=O)[O-].[Na+] [Azlocillin Na Salt] as the compound, how does the “Preliminary rescue result: adults” value (30 μM in fly food) read?
Answer: 1 Adult Normal Wings Adults

Question: With CCCCOc1cc(C(=O)OCCN(CC)CC)ccc1N [Benoxinate Hydrochloride] as the compound, how does the “Preliminary rescue result: adults” value (50 μM in fly food) read?
Answer: 1 Adult Normal Wings Adults

Question: With CN1[C@@H]2CC[C@H]1C[C@@H](OC(c1ccccc1)c1ccccc1)C2 [Benztropine Mesylate] as the compound, how does the “Preliminary rescue result: adults” value (30 μM in fly food) read?
Answer: 2 Adult Normal Wings Adults

Question: For CC(C)NCC(O)COc1ccc(COCCOC(C)C)cc1.CC(C)NCC(O)COc1ccc(COCCOC(C)C)cc1.O=C(O)/C=C/C(=O)O (stereo not drawn) [Beoprolol Fumarate], which “Preliminary rescue result: adults” value (50 μM in fly food) is on record?
Answer: 1 Adult Normal Wings Adults

Question: With C[N+](C)(CCOc1ccccc1)Cc1ccccc1.O=C([O-])c1cc2ccccc2cc1O [BepheniμM Hydroxynaphthoate] as the compound, how does the “Preliminary rescue result: adults” value (30 μM in fly food) read?
Answer: 2 Adult Normal Wings Adults

Question: C=CCC1(CC(C)C)C(=O)NC(=O)NC1=O [Butalbital] was tested. Which “Preliminary rescue result: adults” value (50 μM in fly food) did it give?
Answer: 1 Adult Normal Wings Adults

Question: How did the “Preliminary rescue result: adults” value (50 μM in fly food) turn out when COC(=O)N/N=C/c1c[n+]([O-])c2ccccc2[n+]1[O-] [Carbadox] was run?
Answer: 1 Adult Normal Wings Adults

Question: For CC(C)(C)NCC(O)COc1cccc2c1CCC(=O)N2 (stereo not drawn) [Carteolol HCl], which “Preliminary rescue result: adults” value (50 μM in fly food) is on record?
Answer: 2 Adults Normal Wings

Question: How did the “Preliminary rescue result: adults” value (30 μM in fly food) turn out when COc1ccccc1OCCNCC(O)COc1cccc2[nH]c3ccccc3c12 (stereo not drawn) [Carvedilol] was run?
Answer: 1 Adult Normal Wings Adults

Question: How did the “Preliminary rescue result: adults” value (30 μM in fly food) turn out when Cn1nnnc1SCC1=C(C(=O)[O-])N2C(=O)[C@@H](NC(=O)[C@H](O)c3ccccc3)[C@H]2SC1.[Na+] [Cefamandole Na Salt] was run?
Answer: 2/3 Adult Normal Wing

Question: For CO/N=C(\C(=O)N[C@@H]1C(=O)N2C(C(=O)O)=C(C[N+]3(C)CCCC3)CS[C@H]12)c1csc(N)n1 [Cefepime Hydrochloride], which “Preliminary rescue result: adults” value (30 μM in fly food) is on record?
Answer: 2 Adult Normal Wings Adults

Question: CO[C@@]1(NC(=O)Cc2cccs2)C(=O)N2C(C(=O)O)=C(COC(N)=O)CS[C@@H]21 [Cefoxitin Sodium Salt] was tested. Which “Preliminary rescue result: adults” value (30 μM in fly food) did it give?
Answer: 1 Adult Normal Wings Adults

Question: How did the “Preliminary rescue result: adults” value (50 μM in fly food) turn out when Cc1ccc(-c2cc(C(F)(F)F)nn2-c2ccc(S(N)(=O)=O)cc2)cc1 [Celecoxib] was run?
Answer: 1 Adult Normal Wings Adults

Question: How did the “Preliminary rescue result: adults” value (50 μM in fly food) turn out when CN(C)CC/C=C1/c2ccccc2Sc2ccc(Cl)cc21 [Chlorprothixene] was run?
Answer: 3 Adults Normal Wings

Question: For COCCOC(=O)C1=C(C)NC(C)=C(C(=O)OC/C=C/c2ccccc2)C1c1cccc([N+](=O)[O-])c1 (stereo not drawn) [Cilnidipine], which “Preliminary rescue result: adults” value (30 μM in fly food) is on record?
Answer: 2 Adult Normal Wings Adults

Question: How did the “Preliminary rescue result: adults” value (30 μM in fly food) turn out when NC1CCN(c2c(F)cc3c(=O)c(C(=O)O)cn(C4CC4)c3c2Cl)C1 (stereo not drawn) [Clinafloxacin] was run?
Answer: 4 Adult Normal Wings Adults

Question: Which “Preliminary rescue result: adults” value (50 μM in fly food) does the source give for O=P(O)(O)C(Cl)(Cl)P(=O)(O)O [Clodronate] here?
Answer: 3 Adult Normal Wings Adults

Question: For CC(C)(Oc1ccc(Cl)cc1)C(=O)O [Clofibric Acid], which “Preliminary rescue result: adults” value (30 μM in fly food) is on record?
Answer: 2 Adult Normal Wings Adults

Question: Which “Preliminary rescue result: adults” value (30 μM in fly food) does the source give for Clc1ccc(C(OCCN2CCCCC2)c2ccccc2)cc1 (stereo not drawn) [Cloperastine HCl] here?
Answer: 1 Adult Normal Wings Adults

Question: For Cc1cc(C(C#N)c2ccc(Cl)cc2)c(Cl)cc1NC(=O)c1cc(I)cc(I)c1O (stereo not drawn) [Closantel], which “Preliminary rescue result: adults” value (50 μM in fly food) is on record?
Answer: 2 Adults Normal Wings

Question: How did the “Preliminary rescue result: adults” value (50 μM in fly food) turn out when Clc1ccccc1C(c1ccccc1)(c1ccccc1)n1ccnc1 [Clotrimazole] was run?
Answer: 1 Adult Normal Wings Adults

Question: How did the “Preliminary rescue result: adults” value (50 μM in fly food) turn out when CN1CCN(C(c2ccccc2)c2ccccc2)CC1 [Cyclizine Hcl] was run?
Answer: 1 Adult Normal Wings Adults

Question: Which “Preliminary rescue result: adults” value (30 μM in fly food) does the source give for NS(=O)(=O)c1cc2c(cc1Cl)NC(CC1CCCC1)NS2(=O)=O (stereo not drawn) [Cyclopenthiazide] here?
Answer: 1 Adult Normal Wings Adults

Question: How did the “Preliminary rescue result: adults” value (30 μM in fly food) turn out when NC(=O)C(c1ccccc1)(c1ccccc1)[C@@H]1CCN(CCc2ccc3c(c2)CCO3)C1 [Darifenacin Hydrobromide] was run?
Answer: 3 Adult Normal Wings Adults

Question: C[C@]12CC[C@H]3[C@@H](CCC4=CC(=O)CC[C@@]43C)[C@@H]1CC[C@@H]2C(=O)CO [Deoxycorticosterone] was tested. Which “Preliminary rescue result: adults” value (30 μM in fly food) did it give?
Answer: 1 Adult Normal Wings Adults

Question: How did the “Preliminary rescue result: adults” value (50 μM in fly food) turn out when CCCCOc1cc(C(=O)NCCN(CC)CC)c2ccccc2n1 [Dibucaine] was run?
Answer: 1 Adult Normal Wings Adults

Question: NS(=O)(=O)c1cc(Cl)c(Cl)c(S(N)(=O)=O)c1 [Dichlorphenamide] was tested. Which “Preliminary rescue result: adults” value (30 μM in fly food) did it give?
Answer: 2 Adult Normal Wings Adults

Question: For Cc1onc(-c2c(Cl)cccc2Cl)c1C(=O)N[C@@H]1C(=O)N2[C@@H]1SC(C)(C)[C@@H]2C(=O)O [Dicloxacillin Sodium Salt], which “Preliminary rescue result: adults” value (50 μM in fly food) is on record?
Answer: 1 Adult Normal Wings Adults

Question: With COc1ccc(C(=O)c2ccccc2O)c(O)c1 [Dioxybenzone] as the compound, how does the “Preliminary rescue result: adults” value (30 μM in fly food) read?
Answer: 14 Adult Normal Wings Adults

Question: COc1cc2nc(N3CCN(C(=O)C4COc5ccccc5O4)CC3)nc(N)c2cc1OC (stereo not drawn) [Doxazosin Mesylate] was tested. Which “Preliminary rescue result: adults” value (30 μM in fly food) did it give?
Answer: 1 Adult Normal Wings Adults

Question: For CCN(CC)CCOC(=O)C(c1ccccc1)C1CCCCC1 (stereo not drawn) [Drofenine HCl], which “Preliminary rescue result: adults” value (30 μM in fly food) is on record?
Answer: 1 Adult Normal Wings Adults

Question: With CCn1cc(C(=O)O)c(=O)c2cc(F)c(N3CCNCC3)nc21 [Enoxacin] as the compound, how does the “Preliminary rescue result: adults” value (50 μM in fly food) read?
Answer: 3 Adult Normal Wings Adults

Question: With CCCCC(=O)O[C@H]1CC[C@H]2[C@@H]3CCc4cc(O)ccc4[C@H]3CC[C@]12C [Estradiol Valerate] as the compound, how does the “Preliminary rescue result: adults” value (30 μM in fly food) read?
Answer: 1 Adult Normal Wings Adults

Question: With CCN(CC)C(=O)c1ccc(O)c(OC)c1 [Ethamivan] as the compound, how does the “Preliminary rescue result: adults” value (50 μM in fly food) read?
Answer: 1 Adult Normal Wings Adults

Question: With C#C[C@]1(O)CC[C@H]2[C@@H]3CCc4cc(OC)ccc4[C@H]3CC[C@@]21C [Ethynyletradiol 3-Methyl Ether] as the compound, how does the “Preliminary rescue result: adults” value (30 μM in fly food) read?
Answer: 5 Adult Normal Wings Adults

Question: For CCNCC(O)c1cccc(O)c1.Cl (stereo not drawn) [Etilifrine Hydrochloride], which “Preliminary rescue result: adults” value (30 μM in fly food) is on record?
Answer: 1 Adult Normal Wing Adults

Question: For CC1CC(OC(=O)C(O)c2ccccc2)CC(C)(C)N1C (stereo not drawn) [Eucatropine HCl], which “Preliminary rescue result: adults” value (30 μM in fly food) is on record?
Answer: 1 Adult Normal Wings Adults

Question: Which “Preliminary rescue result: adults” value (30 μM in fly food) does the source give for O=C(O)Cc1ccc(-c2ccccc2)cc1 [Felbinac] here?
Answer: 1 Adult Normal Wings Adults

Question: CC(C(=O)[O-])c1cccc(Oc2ccccc2)c1.CC(C(=O)[O-])c1cccc(Oc2ccccc2)c1.O.O.[Ca+2] (stereo not drawn) [Fenoprofen Ca Salt Dihydrate] was tested. Which “Preliminary rescue result: adults” value (30 μM in fly food) did it give?
Answer: 2 Adult Normal Wings Adults

Question: CC(C)(C(=O)O)c1ccc(C(O)CCCN2CCC(C(O)(c3ccccc3)c3ccccc3)CC2)cc1 (stereo not drawn) [Fexofenadine Hcl] was tested. Which “Preliminary rescue result: adults” value (30 μM in fly food) did it give?
Answer: 1 Adult Normal Wings Adults

Question: How did the “Preliminary rescue result: adults” value (50 μM in fly food) turn out when O=C(COc1ccc(Cl)cc1)N1CCN(Cc2ccc3c(c2)OCO3)CC1 [Fipexide Hydrochloride] was run?
Answer: 1 Adult Normal Wings Adults

Question: OC(Cn1cncn1)(Cn1cncn1)c1ccc(F)cc1F [Fluconazole] was tested. Which “Preliminary rescue result: adults” value (50 μM in fly food) did it give?
Answer: 1 Adult Normal Wings Adults

Question: Which “Preliminary rescue result: adults” value (50 μM in fly food) does the source give for C[C@]12CCC(=O)C=C1CC[C@H]1[C@@H]3CC[C@](O)(C(=O)CO)[C@@]3(C)C[C@H](O)[C@@]12F [Fludrocortisone] here?
Answer: 2 Adults Normal Wings
